Experimental data reported in ChEMBL document CHEMBL4507264, “Data for DCP probe BAY-7598” (2021).

Columns and labels:
Conditions in all cases: Compound concentration 10.0 uM
[1] = target: Kappa-type opioid receptor (Homo sapiens) (UniProt P41145)
[2] = target: B2 bradykinin receptor (Homo sapiens) (UniProt P30411); test: Bradykinin B2 Eurofins-Panlabs radioligand binding assay
[3] = target: Sodium-dependent noradrenaline transporter (Homo sapiens) (UniProt P23975)
[4] = target: B1 bradykinin receptor (Homo sapiens) (UniProt P46663); test: Inhibition of Bradykinin B1 at 10 µM in the Eurofins-Panlabs radioligand binding assay (Eurofins_assay_212510)
Chain of B1 bradykinin receptor (Homo sapiens) (P46663 whole entry): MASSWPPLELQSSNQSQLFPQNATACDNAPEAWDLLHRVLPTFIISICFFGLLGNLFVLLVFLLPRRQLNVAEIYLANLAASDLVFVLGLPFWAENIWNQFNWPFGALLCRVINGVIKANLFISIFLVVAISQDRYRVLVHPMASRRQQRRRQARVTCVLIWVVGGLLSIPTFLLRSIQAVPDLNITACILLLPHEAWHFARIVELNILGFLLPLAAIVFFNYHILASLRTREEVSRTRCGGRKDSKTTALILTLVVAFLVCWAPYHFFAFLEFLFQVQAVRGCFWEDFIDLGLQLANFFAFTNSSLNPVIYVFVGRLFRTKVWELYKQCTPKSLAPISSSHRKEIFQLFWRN

[5] = target: Endothelin-1 receptor (Homo sapiens) (UniProt P25101)
Chain of Endothelin-1 receptor (Homo sapiens) (P25101 whole entry): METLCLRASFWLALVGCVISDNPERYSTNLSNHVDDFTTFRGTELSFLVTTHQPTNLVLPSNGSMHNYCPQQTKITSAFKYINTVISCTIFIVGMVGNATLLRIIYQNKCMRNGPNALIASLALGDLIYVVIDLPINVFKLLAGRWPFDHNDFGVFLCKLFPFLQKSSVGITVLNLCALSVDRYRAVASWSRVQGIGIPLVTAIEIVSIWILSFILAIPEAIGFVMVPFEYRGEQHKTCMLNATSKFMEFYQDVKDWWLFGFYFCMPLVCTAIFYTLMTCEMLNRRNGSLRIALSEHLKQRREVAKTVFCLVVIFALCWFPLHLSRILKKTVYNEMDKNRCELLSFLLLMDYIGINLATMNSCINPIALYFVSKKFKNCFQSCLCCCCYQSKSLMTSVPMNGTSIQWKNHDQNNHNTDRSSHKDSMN

[6] = target: Histamine H3 receptor (Homo sapiens) (UniProt Q9Y5N1)
Chain of Histamine H3 receptor (Homo sapiens) (Q9Y5N1 whole entry): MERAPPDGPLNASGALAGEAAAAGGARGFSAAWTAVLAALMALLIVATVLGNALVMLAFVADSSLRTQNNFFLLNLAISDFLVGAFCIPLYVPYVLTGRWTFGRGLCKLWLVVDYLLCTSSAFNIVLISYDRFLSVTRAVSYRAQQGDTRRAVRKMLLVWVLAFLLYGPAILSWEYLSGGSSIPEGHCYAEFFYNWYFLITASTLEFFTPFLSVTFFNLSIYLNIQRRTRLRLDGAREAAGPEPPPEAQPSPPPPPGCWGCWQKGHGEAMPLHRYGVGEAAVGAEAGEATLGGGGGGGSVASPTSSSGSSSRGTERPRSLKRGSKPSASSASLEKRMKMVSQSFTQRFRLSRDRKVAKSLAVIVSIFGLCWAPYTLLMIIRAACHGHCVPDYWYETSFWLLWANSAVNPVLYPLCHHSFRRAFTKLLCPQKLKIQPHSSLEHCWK

[7] = target: T1, 5-hydroxytryptamine receptor 1A (Homo sapiens) (UniProt P08908)
T1 sequence (whole entry): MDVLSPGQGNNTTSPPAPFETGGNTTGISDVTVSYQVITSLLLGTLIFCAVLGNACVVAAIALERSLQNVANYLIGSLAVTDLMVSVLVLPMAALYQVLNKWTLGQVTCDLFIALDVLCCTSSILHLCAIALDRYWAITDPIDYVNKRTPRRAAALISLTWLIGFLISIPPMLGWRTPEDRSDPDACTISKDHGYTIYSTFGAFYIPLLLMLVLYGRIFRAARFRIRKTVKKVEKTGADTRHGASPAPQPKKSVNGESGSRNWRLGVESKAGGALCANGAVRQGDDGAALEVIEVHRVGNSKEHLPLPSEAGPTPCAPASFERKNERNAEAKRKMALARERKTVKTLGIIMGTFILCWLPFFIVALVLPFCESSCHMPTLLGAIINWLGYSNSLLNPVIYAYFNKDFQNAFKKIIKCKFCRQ

[8] = target: T2, D(4) dopamine receptor (Homo sapiens) (UniProt P21917); test: Inhibition of Dopamine D4.2 at 10 µM in the Eurofins-Panlabs radioligand binding assay (Eurofins_assay_219900); set-up: ligand concentration 0.5 nM
T2 sequence (whole entry): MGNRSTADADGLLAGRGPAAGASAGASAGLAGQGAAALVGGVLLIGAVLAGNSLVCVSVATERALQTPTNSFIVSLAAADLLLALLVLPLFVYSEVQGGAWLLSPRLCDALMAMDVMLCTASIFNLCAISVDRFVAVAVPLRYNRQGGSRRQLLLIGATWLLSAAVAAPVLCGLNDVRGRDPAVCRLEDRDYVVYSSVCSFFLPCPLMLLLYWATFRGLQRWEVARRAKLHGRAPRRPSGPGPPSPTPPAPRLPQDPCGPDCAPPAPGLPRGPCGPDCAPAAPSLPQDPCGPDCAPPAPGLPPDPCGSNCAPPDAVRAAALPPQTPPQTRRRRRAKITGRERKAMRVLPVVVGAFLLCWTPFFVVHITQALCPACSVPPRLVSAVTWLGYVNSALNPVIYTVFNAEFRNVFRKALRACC

[9] = target: Beta-2 adrenergic receptor (Homo sapiens) (UniProt P07550)
Chain of Beta-2 adrenergic receptor (Homo sapiens) (P07550 whole entry, looked up): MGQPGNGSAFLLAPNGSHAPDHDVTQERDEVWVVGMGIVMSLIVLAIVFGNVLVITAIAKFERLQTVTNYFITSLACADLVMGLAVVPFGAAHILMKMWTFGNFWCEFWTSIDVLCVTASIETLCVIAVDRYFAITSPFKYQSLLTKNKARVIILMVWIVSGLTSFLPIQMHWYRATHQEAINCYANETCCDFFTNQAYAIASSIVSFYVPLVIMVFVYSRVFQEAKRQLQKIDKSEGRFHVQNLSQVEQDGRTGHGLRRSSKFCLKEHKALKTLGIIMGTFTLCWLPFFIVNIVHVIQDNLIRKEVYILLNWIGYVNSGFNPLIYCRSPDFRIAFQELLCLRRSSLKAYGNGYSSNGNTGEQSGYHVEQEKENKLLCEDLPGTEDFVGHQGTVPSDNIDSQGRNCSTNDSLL

[10] = target: Sigma non-opioid intracellular receptor 1 (Homo sapiens) (UniProt Q99720); test: Sigma 1 Eurofins-Panlabs radioligand binding assay; set-up: ligand concentration 8 nM
Chain of Sigma non-opioid intracellular receptor 1 (Homo sapiens) (Q99720 whole entry): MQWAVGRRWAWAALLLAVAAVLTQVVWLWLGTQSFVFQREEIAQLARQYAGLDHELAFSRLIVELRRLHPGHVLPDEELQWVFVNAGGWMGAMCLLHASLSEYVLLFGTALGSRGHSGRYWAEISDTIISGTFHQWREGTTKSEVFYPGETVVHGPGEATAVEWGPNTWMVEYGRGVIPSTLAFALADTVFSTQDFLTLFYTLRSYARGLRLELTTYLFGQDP

[11] = target: T3, Alpha-1D adrenergic receptor (Homo sapiens) (UniProt P25100); test: Inhibition of Adrenergic alpha1D at 10 µM in the Eurofins-Panlabs radioligand binding assay (Eurofins_assay_203400)
T3 sequence (whole entry): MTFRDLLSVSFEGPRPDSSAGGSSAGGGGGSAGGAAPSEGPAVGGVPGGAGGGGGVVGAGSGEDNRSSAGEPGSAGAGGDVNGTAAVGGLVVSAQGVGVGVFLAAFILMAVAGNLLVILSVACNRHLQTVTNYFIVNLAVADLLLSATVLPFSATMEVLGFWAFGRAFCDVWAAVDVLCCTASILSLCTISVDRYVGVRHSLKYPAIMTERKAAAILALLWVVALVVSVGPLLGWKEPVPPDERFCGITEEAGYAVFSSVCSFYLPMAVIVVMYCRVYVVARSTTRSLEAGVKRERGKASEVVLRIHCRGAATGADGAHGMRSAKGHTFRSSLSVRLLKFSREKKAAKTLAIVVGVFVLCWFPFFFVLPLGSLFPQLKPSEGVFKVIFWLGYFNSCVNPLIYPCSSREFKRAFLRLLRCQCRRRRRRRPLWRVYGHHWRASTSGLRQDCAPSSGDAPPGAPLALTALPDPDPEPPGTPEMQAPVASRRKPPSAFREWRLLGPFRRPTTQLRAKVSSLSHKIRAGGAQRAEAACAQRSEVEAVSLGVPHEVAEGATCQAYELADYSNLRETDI

[12] = target: Adenosine receptor A2a (Homo sapiens) (UniProt P29274)
Chain of Adenosine receptor A2a (Homo sapiens) (P29274 whole entry): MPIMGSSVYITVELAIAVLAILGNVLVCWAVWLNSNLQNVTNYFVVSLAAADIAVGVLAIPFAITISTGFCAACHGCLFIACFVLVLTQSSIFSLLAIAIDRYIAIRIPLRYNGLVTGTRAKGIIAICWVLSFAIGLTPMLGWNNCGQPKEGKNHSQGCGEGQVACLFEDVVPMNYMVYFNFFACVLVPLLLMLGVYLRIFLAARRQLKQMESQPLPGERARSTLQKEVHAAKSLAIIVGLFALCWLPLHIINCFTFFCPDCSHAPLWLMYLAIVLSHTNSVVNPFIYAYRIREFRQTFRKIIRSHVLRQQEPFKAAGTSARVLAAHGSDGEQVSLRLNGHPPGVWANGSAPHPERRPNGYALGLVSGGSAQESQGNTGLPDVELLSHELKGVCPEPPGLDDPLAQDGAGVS

Mus musculus = species on record: Mus musculus; test: Inhibition of Phorbol Ester at 10 µM in the Eurofins-Panlabs radioligand binding assay (Eurofins_assay_264500); set-up: ligand concentration 3 nM

Measured: inhibition

Chain of B2 bradykinin receptor (Homo sapiens) (P30411 whole entry): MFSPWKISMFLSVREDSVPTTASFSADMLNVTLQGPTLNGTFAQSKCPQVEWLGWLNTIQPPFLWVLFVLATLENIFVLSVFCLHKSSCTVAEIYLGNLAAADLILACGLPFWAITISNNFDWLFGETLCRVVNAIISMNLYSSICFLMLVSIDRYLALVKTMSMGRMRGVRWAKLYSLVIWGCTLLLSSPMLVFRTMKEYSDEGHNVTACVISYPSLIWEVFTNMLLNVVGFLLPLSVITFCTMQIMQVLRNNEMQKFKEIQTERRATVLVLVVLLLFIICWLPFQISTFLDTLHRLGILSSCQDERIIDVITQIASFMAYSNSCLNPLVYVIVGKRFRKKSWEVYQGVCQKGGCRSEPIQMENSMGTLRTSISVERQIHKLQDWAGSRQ
Chain of Kappa-type opioid receptor (Homo sapiens) (P41145 whole entry): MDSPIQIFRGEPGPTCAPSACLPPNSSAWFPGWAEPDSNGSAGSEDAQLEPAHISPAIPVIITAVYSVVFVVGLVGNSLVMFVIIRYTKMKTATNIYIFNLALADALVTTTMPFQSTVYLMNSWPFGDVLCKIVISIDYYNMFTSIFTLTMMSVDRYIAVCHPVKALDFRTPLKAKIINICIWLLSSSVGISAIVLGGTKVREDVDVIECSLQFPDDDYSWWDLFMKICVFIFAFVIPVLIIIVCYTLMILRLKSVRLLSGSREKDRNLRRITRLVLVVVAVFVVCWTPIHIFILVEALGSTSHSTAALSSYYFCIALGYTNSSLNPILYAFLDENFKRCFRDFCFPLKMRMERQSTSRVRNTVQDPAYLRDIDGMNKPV
Chain of Sodium-dependent noradrenaline transporter (Homo sapiens) (P23975 whole entry): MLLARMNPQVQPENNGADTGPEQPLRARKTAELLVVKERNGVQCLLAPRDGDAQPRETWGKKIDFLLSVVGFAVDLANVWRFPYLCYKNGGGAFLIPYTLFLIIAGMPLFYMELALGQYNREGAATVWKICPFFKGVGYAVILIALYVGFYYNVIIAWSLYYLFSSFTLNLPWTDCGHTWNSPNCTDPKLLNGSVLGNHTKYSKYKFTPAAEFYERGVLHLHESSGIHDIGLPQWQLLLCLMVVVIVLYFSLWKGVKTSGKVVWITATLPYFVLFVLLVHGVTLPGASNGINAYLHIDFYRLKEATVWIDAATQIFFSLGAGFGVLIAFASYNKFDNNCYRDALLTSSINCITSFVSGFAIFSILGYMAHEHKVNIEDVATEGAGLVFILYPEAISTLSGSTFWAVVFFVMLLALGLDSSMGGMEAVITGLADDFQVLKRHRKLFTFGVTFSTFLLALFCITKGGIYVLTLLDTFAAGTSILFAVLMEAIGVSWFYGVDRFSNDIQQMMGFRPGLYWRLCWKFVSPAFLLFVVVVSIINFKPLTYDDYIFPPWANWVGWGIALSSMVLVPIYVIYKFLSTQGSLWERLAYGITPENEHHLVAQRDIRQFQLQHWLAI

O=C(O)[C@H]1[C@H](Cn2nnc3ccccc3c2=O)CC[C@@H]1C(=O)c1ccc(OCCC2CCOCC2)cc1 [BAY-7598]
inactive: [1] 7% | [2] -10% | [3] 6% | [4] 6% | [5] 7% | [6] -6% | [7] -9% | [8] -2% | [9] 4% | [10] 15% | [11] -9% | [12] 7% | Mus musculus 4%
